How the values were obtained:
Assay type in all cases: ADME, organism-based
[1] = Cmax in lung transplant recipient at 6 mg/kg, iv twice a day administered immediately post transplant as 2 hr infusion followed by 200 mg, po bid for 3 months by HPLC analysis; parameters: dose 6 mg/kg, route oral; conditions: human, in vivo
[2] = Tmax in lung transplant recipient at 6 mg/kg, iv twice a day administered immediately post transplant as 2 hr infusion followed by 200 mg, po bid for 3 months by HPLC analysis; parameters: dose 6 mg/kg, route oral; conditions: human, in vivo
[3] = Plasma concentration in lung transplant recipient at 6 mg/kg, iv twice a day administered immediately post transplant as 2 hr infusion followed by 200 mg, po bid for 3 months by HPLC analysis; parameters: dose 6 mg/kg, route oral; conditions: human
[4] = Cmax in lung transplant recipient at 6 mg/kg, iv twice a day administered immediately post transplant as 2 hr infusion; parameters: dose 6 mg/kg, route intravenous; conditions: human, in vivo

C[C@@H](c1ncncc1F)[C@](O)(Cn1cncn1)c1ccc(F)cc1F [VORICONAZOLE]
Cmax [1]: 5900 ng/mL | Tmax [2]: 1.9 h | concentration at 2 h [3]: 1000 ng/mL | Cmax [4]: 3600 ng/mL

From ChEMBL document CHEMBL1687775, “Bioavailability and population pharmacokinetics of voriconazole in lung transplant recipients” (Antimicrob Agents Chemother, 2010)
